System: human myeloma cell line MM.1S
Assay: SILAC acetylated-lysine peptide profiling, HDAC inhibitor vs DMSO (light/heavy ratio)
Type: cell-based
Excerpt: An embodiment of the invention comprises utilizing the SILAC method in order to quantitate changes in protein expression between two or more populations of cells. The SILAC method is a technique based on mass spectrometry that detects differences in protein abundance among samples using non-radioactive isotopic labeling. The SILAC method is known in the art, and described in detail in Ong et al., “Stable Isotope Labeling by Amino Acids in Cell Culture, SILAC, as a Simple and Accurate Approach to Expression Proteomics”, Molecular & Cellular Proteomics, vol. 1, pp. 376-386 (2002), which is incorporated herein by reference in its entirety.
Briefly, the SILAC method involves growing two populations of cells in cell culture. The first population of cells is grown in growth media containing normal amino acids (“normal media”). The second population of cells is grown in media lacking a standard essential amino acid (such as lysine), but is then supplemented with a non-radioactive, isotopically labeled form of that essential amino acid (such as lysine labeled with ^13C atoms, rather than normal ^12C atoms), which is called “heavy media”. When the two populations of cells are each growing in the medium, they incorporate the amino acids into all of their proteins. The growth of cells maintained in the heavy media is no different from that in normal media. All peptides containing the heavy amino acids are heavier than their normal counterparts. The cells from each of the two populations of cells are lysed. The lysates from each of the two cell populations are then combined. The combined cell lysates are then analyzed by mass spectrometry. Pairs of chemically identical peptides of different stable isotope composition can be differentiated in a mass spectrometer due to their difference in mass. The ratio of peak intensities in the mass spectrum for such peptide pairs reflects the abundance ratio for the two proteins.
This example describes SILAC studies that were performed to compare the effects of three different HDAC inhibitors (Compound A, Compound B, and tubastatin A) to a control on a human multiple myeloma cell line. The HDAC inhibitors were also compared amongst themselves to determine differences in their effects.
A human myeloma cell line MM.1S was grown using either ^12C (light) or ^13C (heavy) lysine containing culture medium. The “heavy” cells were treated with DMSO as the control, and the “light” cells were treated with a single HDAC inhibitor at 37° C. for 6 hours. The heavy and light cells were lysed, and the lysates were mixed in 1:1 ratio and digested with the protease trypsin. The acetylated lysine containing peptides (due to the action of the HDAC inhibitor) in the digested peptide pool were captured by a non-specific anti-acetylated lysine antibody cocktail (the antibodies identify both light and heavy acetylated peptides), and subjected to mass spectrometry analysis in order to identify thousands of individual peptides.
Thousands of peptides were identified in pairs (^12C and ^13C) due to their known mass differences. The amino acid sequence and quantitative ratio (Light/Heavy) of a given peptide in two differentially treated cell lysates were then determined and annotated with their possible protein (gene) sources.
As stated above, three HDAC inhibitors (Compound A, Compound B, and Tubastatin A) were used. Thus, the SILAC method was performed three times, with a different HDAC inhibitor compared to a control each time. Accordingly, there are three pairs of quantitative data in the table below, i.e., Compound A:DMSO, Compound B:DMSO, and Tubastatin A:DMSO. A cut-off of 1.30 fold of change (increase or decrease) was then used to determine “changed” or “+” in the table, and any peptides with a fold of change less than 1.3 fold were determined to be “unchanged” or “0” in the table. Those peptides that were not identified were marked as “NA” in the table. […]

O=C(NO)c1cnc(NC2(c3cccc(F)c3)CCCCC2)nc1 [Compound B, 2-((1-(3-fluorophenyl)cyclohexyl)amino)-N-hydroxypyrimidine-5-carboxamide]
L/H ratio of acetylated peptide ([…](ac)HLSASQK (SEQ ID NO: 381), Cytochrome c oxidase subunit 4 isoform 1 mitochondrial [53], COX4I1): −0.63 log 2 | light to heavy ratio (L/H ratio) of acetylated peptide, log 2 scale ([…](ac)IFK (SEQ ID NO: 157), cDNA FLJ59630 highly similar to Growth hormone-inducible transmembrane protein [76], GHITM): 0.00 | light to heavy ratio (L/H ratio) of acetylated peptide, log 2 scale ([…](ac)IVIQK (SEQ ID NO: 165), Isoform A1-B of Heterogeneous nuclear ribonucleoprotein A1 [161], HNRNPA1): 0.00 | light to heavy ratio (L/H ratio) of acetylated peptide, log 2 scale ([…](ac)K (SEQ ID NO: 242), Vimentin [235], VIM): 0.00 | L/H ratio of acetylated peptide ([…](ac)K (SEQ ID NO: 427), Profilin-1 [126], PFN1): 0.58 log 2 | light to heavy ratio (L/H ratio) of acetylated peptide, log 2 scale ([…](ac)LFR (SEQ ID NO: 136), B-cell receptor-associated protein 31 [95], BCAP31): 0.00 | L/H ratio of acetylated peptide ([…](ac)LHIVK (SEQ ID NO: 378), Chloride intracellular channel protein 4 [194], CLIC4): 0.51 log 2 | light to heavy ratio (L/H ratio) of acetylated peptide, log 2 scale ([…](ac)LLPHIR (SEQ ID NO: 208), 60S acidic ribosomal protein P0 [77], RPLP0): 0.00 | L/H ratio of acetylated peptide ([…](ac)VNSK (SEQ ID NO: 430), Isoform 1 of Inorganic pyrophosphatase 2 mitochondrial [69], PPA2): 0.91 log 2 | L/H ratio of acetylated peptide ([…](ac)WK (SEQ ID NO: 453), Lupus La protein [328], SSB): 0.57 log 2 | L/H ratio of acetylated peptide ([…](ac)YLNFVK (SEQ ID NO: 405), Endoplasmin [428], HSP90B1): 0.77 log 2 | L/H ratio of acetylated peptide ([…](ac)YQEALAK (SEQ ID NO: 450), Superoxide dismutase [Mn] mitochondrial [68], SOD2): −0.67 log 2 | light to heavy ratio (L/H ratio) of acetylated peptide, log 2 scale ([…](ac)[…] (SEQ ID NO: 132), ATP synthase subunit b mitochondrial [221], ATP5F1): 0.00 | light to heavy ratio (L/H ratio) of acetylated peptide, log 2 scale ([…](ac)[…] (SEQ ID NO: 139), cDNA FLJ55574 highly similar to Calnexin [217], CANX): 0.00 | light to heavy ratio (L/H ratio) of acetylated peptide, log 2 scale ([…](ac)[…] (SEQ ID NO: 145), Isoform 1 of Cellular nucleic acid-binding protein [118], CNBP): 0.00 | L/H ratio of acetylated peptide ([…](ac)[…] (SEQ ID NO: 372), Calreticulin [98], CALR): −0.43 log 2 | L/H ratio of acetylated peptide ([…](ac)[…] (SEQ ID NO: 387), D-dopachrome decarboxylase [87], DDT): −0.44 log 2 | L/H ratio of acetylated peptide ([…](ac)[…] (SEQ ID NO: 399), Guanine nucleotide-binding protein subunit beta-2-like 1 [139], GNB2L1): 0.54 log 2 | L/H ratio of acetylated peptide ([…](ac)[…] (SEQ ID NO: 408), Isoform 1 of Isocitrate dehydro-genase [NAD] subunit alpha mitochondrial [77], IDH3A): −0.44 log 2 | L/H ratio of acetylated peptide ([…](ac)[…] (SEQ ID NO: 455), Isoform 1 of Translocon-associated protein subunit alpha [102], SSR1): −0.88 log 2 | L/H ratio of acetylated peptide ([…](ac)[…] (SEQ ID NO: 466), Voltage-dependent anion-selective channel protein 1 [266], VDAC1): −0.66 log 2 | L/H ratio of acetylated peptide ([…](ac)[…] (SEQ ID NO: 469), Isoform 1 of Voltage-dependent anion-selective channel protein 3 [266], VDAC3): −0.71 log 2 | light to heavy ratio (L/H ratio) of acetylated peptide YDGK(ac)WEVEEMK (SEQ ID NO: 274) (cDNA FLJ55574 highly similar to Calnexin [138], CANX, drug:DMSO): 0.00 log 2 | light to heavy ratio (L/H ratio) of acetylated peptide LNK(ac)PFLFDTK (SEQ ID NO: 327) (cDNA FLJ55574 highly similar to Calnexin [172], CANX, drug:DMSO): 0.43 log 2 | light to heavy ratio (L/H ratio) of acetylated peptide NFK(ac)SISK (SEQ ID NO: 356) (cDNA FLJ56425 highly similar to Very-long-chain specific acyl-CoAdehydrogenase mitochondrial [681], ACADVL, drug:DMSO): 0.44 log 2 | light to heavy ratio (L/H ratio) of acetylated peptide LPSSTK(ac)SGWPR (SEQ ID NO: 500) (cDNA FLJ75110 highly similar to Homo sapiens PHD finger protein 15 (PHF15) mRNA [38], gene PHF15, inhibitor:DMSO): 0.00 log 2 | light to heavy ratio (L/H ratio) of acetylated peptide IINEVSK(ac)[…] (SEQ ID NO: 341) (cDNA FLJ77177 highly similar to Homo sapiens arginine-rich mutated in early stage tumors (ARMET) mRNA [97], MANF, drug:DMSO): −0.58 log 2 | light to heavy ratio (L/H ratio) of acetylated peptide TNVPVK(ac)LFAR (SEQ ID NO: 348) (cDNA FLJ77422 highly similar to Homo sapiens RNA binding protein autoantigenic (hnRNP-associated with lethal yellow homolog (mouse)) transcript variant 1 mRNA (Fragment) [165], RALY, drug:DMSO): 0.39 log 2 | light to heavy ratio (L/H ratio) of acetylated peptide EIAQEFK(ac)TDLR (SEQ ID NO: 337) (histone cluster 2 H3 pseudogene 2 [80], HIST2H3PS2, drug:DMSO): −0.49 log 2 | light to heavy ratio (L/H ratio) of acetylated peptide SK(ac)SDPIMLLK (SEQ ID NO: 255) (pyruvate dehydrogenase E1 component subunit alpha somatic form mitochondrial isoform 2 precursor [351], PDHA1, drug:DMSO): 0.00 log 2 | light to heavy ratio (L/H ratio) of acetylated peptide VTNLLMLK(ac)GK (SEQ ID NO: 350) (regulator of differentiation 1 isoform 2 [64], ROD1, drug:DMSO): 0.83 log 2 | light to heavy ratio (L/H ratio) of acetylated peptide LTSLNVK(ac)YNNDK (SEQ ID NO: 590) (regulator of differentiation 1 isoform 2 [236], gene ROD1, inhibitor:DMSO): 0.00 log 2 | light to heavy ratio (L/H ratio) of acetylated peptide GWLK(ac)[…] (SEQ ID NO: 278) (triosephosphate isomerase isoform 2 [231], TPI1, TPI1P1, drug:DMSO): 0.00 log 2
